From US20230109839A1, “THERAPEUTIC AGENT FOR TAUOPATHIES” (SUMITOMO PHARMA CO., LTD., priority 2020, published 2023)

Target: T1, human Nav1.1 (Homo sapiens, UniProt P35498)
T1 construct: host or cells: HEK293
Assay: Amplification of Nav1.1-derived voltage-gated sodium current (Nav1.1 current), automated patch clamp (Test 1)
Type: cell-based
Settings: Concentration for evaluation 1 μM; HEK293 cell line stably expressing human Nav1.1
Procedure, shortened: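 HEK293 cells stably expressing human Nav1.1, restricted to cells with >500 pA current, were recorded by automated voltage-clamp patch clamp with a ramp voltage stimulus. Compounds were applied in HEPES-buffered extracellular solution with 1% DMSO. Amplification (%) = 100×(peak or AUC after/before compound)−100.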

| Nav1.1 current amplification rate (%) | SMILES |
| --- | --- |
| 34% | CN(c1cnc2cnn(CC(=O)Nc3ccc4ncnn4c3)c2n1)C1CC1 [Example 664] |
| 13% | CN(c1cnc2cnn(CC(=O)N3CCc4c(C#N)cccc43)c2n1)C1CC1 [Example 715] |
| 82% | Cc1ncc(-c2cncc(NC(=O)Cn3nc(C4=CCC(C)CC4)ccc3=O)c2)o1 (centres unmarked) [Example 380] |
| 13% | CN(c1cnc2cnn(CC(=O)N3CCc4c(-c5ccnn5C)cccc43)c2n1)C1CCC1 [Example 693] |
| 275% | COc1cc(C2=CCC(C)(C)CC2)nn(CC(=O)N2CCc3c(N4CCOCC4)cccc32)c1=O [Example 468] |
| 46% | COCCN(C)Cc1cccc2c1CCN2C(=O)Cn1nc(C2=CCC(C)CC2)ccc1=O (centres unmarked) [Example 275] |
| 44% | O=C(Cn1ncc2cnc(-c3ccc(C(F)(F)F)s3)nc21)Nc1ccn2ncnc2c1 [Example 779] |
| 25% | O=C(Cn1ncc2ncc(N3CCC4(CC4)C(F)(F)C3)nc21)Nc1ccc2ncnn2c1 [Example 659] |
| 56% | Cc1cc(NC(=O)Cn2ncc3ncc(N(C)C4CCCC4)nc32)cc2ncnn12 [Example 672] |
| 13% | Cc1cn2ccc(NC(=O)Cn3ncc4ncc(N(C)C5CCC5)nc43)cc2n1 [Example 686] |
| 164% | CN(c1ncc2cnn(CC(=O)Nc3ccn4ncnc4c3)c2n1)C1CC(C)(C)C1 [Example 632] |
| 210% | CC1CC=C(c2ccc(=O)n(CC(=O)N3CCc4c3cccc4C(C)(C)O)n2)CC1 (centres unmarked) [Example 277] |
| 62% | CN(c1cnc2cnn(CC(=O)Nc3ccc4cnnn4c3)c2n1)C1CC1 [Example 707] |
| 60% | COC1CN(Cc2cccc3c2CCN3C(=O)Cn2nc(C3=CCC(C)CC3)ccc2=O)C1 (centres unmarked) [Example 274] |
| 26% | CC1CC=C(c2ccc(=O)n(CC(=O)N3CCc4c(CN5CCCCC5)cccc43)n2)CC1 (centres unmarked) [Example 282] |
| 57% | CC1CC=C(c2ccc(=O)n(CC(=O)Nc3cnc4c(cnn4C)c3)n2)CC1 (centres unmarked) [Example 348] |

Same assay, conditions: Concentration for evaluation 3 μM; HEK293 cell line stably expressing human Nav1.1

| Nav1.1 current amplification rate (%) | SMILES |
| --- | --- |
| 254% | CC1CC=C(c2ccc(=O)n(CC(=O)N3CCc4c(-c5ccn(C)n5)cccc43)n2)CC1 (centres unmarked) [Example 252] |
| 455% | CC1CC=C(c2ccc(=O)n(CC(=O)N3CCc4c(-c5ccnnc5)cccc43)n2)CC1 (centres unmarked) [Example 253] |
| 124% | CC1CC=C(c2ccc(=O)n(CC(=O)Nc3ccc4oc(C(C)(C)O)nc4c3)n2)CC1 (centres unmarked) [Example 327] |
| 58% | CC1CC=C(c2ccc(=O)n(CC(=O)Nc3cc4nccn4cn3)n2)CC1 (centres unmarked) [Example 328] |
| 532% | CC1CC=C(c2ccc(=O)n(CC(=O)N3CCc4c(C5CN(C(=O)C(C)(C)O)C5)cccc43)n2)CC1 (centres unmarked) [Example 306] |
| 104% | CCN1CC(c2cccc3c2CCN3C(=O)Cn2nc(C3=CCC(C)CC3)ccc2=O)C1 (centres unmarked) [Example 302] |
| 345% | O=C(Cn1nc(C2=CCC3(CC2)CC3(F)F)ccc1=O)N1CCc2c(N3CCOCC3)cccc21 (centres unmarked) [Example 478] |
| 79% | CC1CC=C(c2ccc(=O)n(CC(=O)N3CCN(c4ccccc4)CC3)n2)CC1 (centres unmarked) [Example 258] |
| 481% | CC1CC=C(c2ccc(=O)n(CC(=O)N3CCc4c(CN5CCOCC5)cccc43)n2)CC1 (centres unmarked) [Example 270] |

Same assay, conditions: Concentration for evaluation 10 μM; HEK293 cell line stably expressing human Nav1.1

| Nav1.1 current amplification rate (%) | SMILES |
| --- | --- |
| 220% | N#Cc1ccc(NC(=O)Cn2nc(N3CCC4(CCCCC4)C3)ccc2=O)cc1 [Example 31] |
| 343% | COc1cc(=O)n(CC(=O)N2CCc3c(N4CCOCC4)cccc32)nc1C1=CCC(C(F)(F)F)CC1 (centres unmarked) [Example 476] |
| 24% | O=C(Cn1nc(C2=CCCCC2)ccc1=O)Nc1ccn2ccnc2c1 [Example 458] |
| 28% | CC12CCC(CN(c3ccc(=O)n(CC(=O)Nc4ccc(C#N)cc4)n3)C1)C2(C)C (centres unmarked) [Example 23] |
| 376% | COc1cc(C2=CCC(C)CC2)nn(CC(=O)N2CCN(c3cncc(F)c3)CC2)c1=O (centres unmarked) [Example 488] |
| 40% | CC1CC=C(c2ccc(=O)n(CC(=O)N3CCc4c3ccnc4C3=CCNC3)n2)CC1 (centres unmarked) [Example 281] |
| 312% | CC1CCN(c2nn(CC(=O)Nc3ccc(C#N)cc3)c(=O)c3c2CCCC3)CC1 [Example 36] |
| 102% | CN(c1cnc2cnn(CC(=O)N3CCc4c3cccc4C(F)(F)F)c2n1)C1CC1 [Example 731] |
| 177% | CC1CCN(c2ccc(=O)n(CC(=O)Nc3cccc(-n4ccnc4)c3)n2)CC1 [Example 67] |
| 158% | CCC1(C)CCN(c2ccc(=O)n(CC(=O)Nc3ccc(C#N)cc3)n2)CC1 [Example 28] |
| 35% | CC1CC=C(c2ccc(=O)n(CC(=O)Nc3ccnc(CN4CCOCC4)c3)n2)CC1 (centres unmarked) [Example 373] |
| 163% | N#Cc1ccc(NC(=O)Cn2nc(N3CCC4(CC4)C3)ccc2=O)cc1 [Example 25] |
| 92% | CC1CCN(c2ccc(=O)n(CC(=O)Nc3ccc4ncoc4c3)n2)CC1 [Example 73] |
| 9% | CC1CC(C)CN(c2ccc(=O)n(CC(=O)Nc3ccc(C#N)cc3)n2)C1 (centres unmarked) [Example 14] |
| 125% | N#Cc1ccc(NC(=O)Cn2nc(C3=CCCCC3)ccc2=O)cc1 [Example 39] |
| 136% | Cc1ccc(N2CCN(C(=O)Cn3nc(C4=CCC(C)CC4)ccc3=O)CC2)cn1 (centres unmarked) [Example 396] |
| 18% | O=C(Cn1nc(C2=CCC(F)(F)CC2)ccc1=O)Nc1ccn2ccnc2c1 [Example 464] |
| 39% | CC1CC=C(c2ccc(=O)n(CC(=O)N3CC=C(c4ccccn4)CC3)n2)CC1 (centres unmarked) [Example 420] |
| 2% | CC1C=C(c2ccc(=O)n(CC(=O)Nc3ccc(C#N)cc3)n2)CC(C)O1 (centres unmarked) [Example 49] |
| 233% | COc1cc(-c2cc(Cl)cs2)nn(CC(=O)Nc2ccn3ccnc3c2)c1=O [Example 466] |
| 199% | CC1CC=C(c2ccc(=O)n(CC(=O)Nc3ccn4cc(C(F)(F)F)nc4c3)n2)CC1 (racemic) [Example 421] |
| 45% | CC1CCN(c2ccc(=O)n(CC(=O)Nc3ccc4cnn(C)c4c3)n2)CC1 [Example 83] |
| 310% | COc1nc2cc(NC(=O)Cn3nc(C4=CCC(C)CC4)ccc3=O)ccc2o1 (centres unmarked) [Example 239] |
| 152% | N#Cc1ccc(NC(=O)Cn2nc(N3CCCC4(CC4)C3)ccc2=O)cc1 [Example 20] |

Same assay, conditions: Concentration for evaluation 50 μM; HEK293 cell line stably expressing human Nav1.1

| Nav1.1 current amplification rate (%) | SMILES |
| --- | --- |
| 13% | N#Cc1ccc(-c2ncc3cnn(CC(=O)Nc4ccn5ncnc5c4)c3n2)s1 [Example 778] |
| 32% | CC1CC=C(c2ccc(=O)n(CC(=O)Nc3cncc(CN(C)C)c3)n2)CC1 (centres unmarked) [Example 365] |
| 37% | COC1CN(Cc2cncc(NC(=O)Cn3nc(C4=CCC(C)CC4)ccc3=O)c2)C1 (centres unmarked) [Example 366] |
| 12% | Cc1cccc(F)c1Nc1ncc2cnn(CC(=O)Nc3ccn4ncnc4c3)c2n1 [Example 775] |

Same assay, conditions: HEK293, Concentration for evaluation 1 μM; HEK293 cell line stably expressing human Nav1.1; read-out: Nav1.1 current amplification rate (%)

| activation at 1 µM | SMILES |
| --- | --- |
| 91% | CC1CC=C(c2cnc3cnn(CC(=O)N4CCN(c5cccnc5)CC4)c3n2)CC1 (centres unmarked) [Example 740] |
| 147% | O=C(Cn1ncc2ncc(N3CCC4(CC4)C(F)(F)C3)nc21)Nc1ccn2ccnc2c1 [Example 744] |

Same assay, conditions: HEK293, Concentration for evaluation 10 μM; HEK293 cell line stably expressing human Nav1.1; read-out: Nav1.1 current amplification rate (%)

| activation at 10 µM | SMILES |
| --- | --- |
| 5% | N#Cc1cncc(NC(=O)Cn2nc(N3CCCCC3)ccc2=O)c1 [Example 108] |
| 27% | CN(c1cnc2cnn(CC(=O)NCCc3ccccc3F)c2n1)C1CC2(CC2)C1 [Example 750] |

Same assay, conditions: HEK293, concentration for evaluation 0.3 μM; HEK293 stably expressing human Nav1.1; read-out: Nav1.1 current amplification rate (%)

| activation at 0.3 µM | SMILES |
| --- | --- |
| 122% | CN(c1ncc2cnn(CC(=O)N3CCc4c(-c5ccnnc5)cccc43)c2n1)C1CC1 [Example 838] |

Same assay, conditions: HEK293, concentration for evaluation 1 μM; HEK293 stably expressing human Nav1.1; read-out: Nav1.1 current amplification rate (%)

| activation at 1 µM | SMILES |
| --- | --- |
| 68% | N#Cc1ccc(NC(=O)Cn2ncc3ccc(N4CCC5(CC5)C(F)(F)C4)nc32)cn1 [Example 890] |
| 171% | CC1CCN(c2ncc3cnn(CC(=O)Nc4ccc(C#N)nc4)c3n2)CC1(F)F (centres unmarked) [Example 843] |

Same assay, conditions: concentration for evaluation 1 μM; HEK293 stably expressing human Nav1.1

| Nav1.1 current amplification rate (%) | SMILES |
| --- | --- |
| 66% | CN(c1ncc2cnn(CC(=O)Nc3ccn4ncnc4c3)c2n1)C1CCC(F)(F)C1 (centres unmarked) [Example 796] |
| 54% | N#Cc1ccc(NC(=O)Cn2ncc3cnc(N4CCC5(CC5)C(F)(F)C4)nc32)nc1 [Example 830] |
| 160% | CC1CC=C(c2ccc3cnn(CC(=O)Nc4ccn5ccnc5c4)c3n2)CC1 (centres unmarked) [Example 864] |
| 45% | O=C(Cn1ncc2ccc(N3CCC4(CCC4)CC3)nc21)Nc1ccn2ncnc2c1 [Example 854] |
| 17% | O=C(Cn1ncc2ccc(C3=COCCC3)nc21)Nc1ccn2ccnc2c1 [Example 869] |
| 13% | O=C(Cn1ncc2cnc(C3=CCC(F)(F)CC3)nc21)Nc1ccc2ncnn2c1 [Example 812] |
| 193% | CN(CC1CCC1)c1ncc2cnn(CC(=O)Nc3ccn4ncnc4c3)c2n1 [Example 798] |
| 16% | O=C(Cn1ncc2ccc(-c3ccc(F)cc3)nc21)Nc1ccn2ccnc2c1 [Example 866] |
